{
  "source": "paper PMC3171408",
  "about": "“Analysis of the BarA/UvrY Two-Component System in Shewanella oneidensis MR-1” (PLoS ONE, 2011)",
  "biological_target": "T1, BarA(181–929) (Shewanella oneidensis, UniProt Q8EBQ2)",
  "T1 construct": "cytoplasmic region aa 181-929 of 929 aa (full length 103 kDa; two N-terminal TM domains removed), N-terminal 6xHis tag (pBAD-HisA), expressed in E. coli, Ni-NTA purified",
  "T1 sequence (Q8EBQ2 187-935)": "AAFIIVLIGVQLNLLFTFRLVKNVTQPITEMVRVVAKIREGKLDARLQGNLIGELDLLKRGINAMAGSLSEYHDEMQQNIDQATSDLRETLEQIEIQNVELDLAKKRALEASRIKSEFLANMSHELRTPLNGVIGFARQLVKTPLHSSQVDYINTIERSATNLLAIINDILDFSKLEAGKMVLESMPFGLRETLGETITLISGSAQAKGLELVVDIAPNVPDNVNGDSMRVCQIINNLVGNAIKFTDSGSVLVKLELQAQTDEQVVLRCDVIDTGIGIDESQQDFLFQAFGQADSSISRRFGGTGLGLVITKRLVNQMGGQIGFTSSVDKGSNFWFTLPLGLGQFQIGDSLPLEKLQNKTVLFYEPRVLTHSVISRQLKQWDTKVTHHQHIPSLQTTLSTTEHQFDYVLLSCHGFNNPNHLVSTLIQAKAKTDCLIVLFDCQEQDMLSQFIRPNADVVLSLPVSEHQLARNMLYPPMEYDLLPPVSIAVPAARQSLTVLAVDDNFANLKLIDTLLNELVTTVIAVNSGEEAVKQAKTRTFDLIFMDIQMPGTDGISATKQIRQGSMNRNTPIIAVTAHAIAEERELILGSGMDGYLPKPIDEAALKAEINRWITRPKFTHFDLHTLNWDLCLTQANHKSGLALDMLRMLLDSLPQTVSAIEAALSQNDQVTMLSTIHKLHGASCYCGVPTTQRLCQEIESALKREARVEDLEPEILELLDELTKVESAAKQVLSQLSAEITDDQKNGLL",
  "assay": "autophosphorylation, SDS-PAGE autoradiography",
  "assay_type": "biochemical",
  "details": "0.5 mM ATP, 10 µM protein, 5 mM MgCl2, 50 mM KCl, pH 8.0, room temperature; labelled compound",
  "data": [
    {"smiles": "Nc1ncnc2c1ncn2[C@@H]1O[C@H](COP(=O)(O)OP(=O)(O)OP(=O)(O)O)[C@@H](O)[C@H]1O", "note": "[[γ-^32P]ATP]", "values": [
      {"measurement": "autophosphorylation, SDS-PAGE autoradiography", "value": "BarA was readily phosphorylated, indicating autophosphorylation activity of the kinase region."}
    ]}
  ]
}
